Measured values from US9296728B2, “Therapeutic compounds” (Regents of the University of Minnesota, priority 2012, dated 2016).

Assays:
MCT1 = MCT1 (Rattus norvegicus (Rat), UniProt P53987); assay: Test A. MCT1 inhibition via lactate uptake in rat brain endothelial (RBE4) cells; type: cell-based; conditions: 14C-lactate uptake
Description: Test A. MCT1 Inhibition Via Lactate Uptake Rat Brain Endothelial Cells
The entire lactate uptake studies for the inhibition of MCT1 were carried out on RBE4 (Rat Brain Endothelial 4) cells. The expression of MCT1 on these cells was confirmed by Western Blotting. The cells were plated approximately 20-24 hours before the experiment, the number of cells being approximately 10^5 cells per well. The test compounds were dissolved in DMSO and diluted 1000 times using a solution of HEPES buffer (pH 7.43) which consists of 3 μM ^14C-Lactate and 2 μM L-Lactate. The cells were washed twice with 500 μL of HEPES buffer and the cells were allowed to equilibrate for 15 minutes at 37° C. The HEPES buffer was removed and 250 μL of the test sample was added in triplicates. This was repeated for all the compounds, including the controls (CHC and DMSO). After 15 minutes, the compounds were removed from the well and 500 μL of ice-cold stop buffer (0.1 mM CHC solution in HEPES buffer) was added. The plate was kept on ice. Now, the HEPES buffer in one triplicate was removed and DMSO solution was added and immediately removed and ice-cold stop buffer was added. This was considered as “Zero”. One triplicate was left blank, which was used for protein assay after lysing the cells. The cells were washed twice with ice-cold HEPES buffer and then 250 μL of 0.1M NaOH in 5% Triton-X solution was added and the plate is kept on a shaker for 40 minutes to lyse the cells. 150 μL of the lysed cells was added into 4 mL of the scintillation fluid in a scintillation vial and scintillation count was obtained in disintegrations per minute (dpm). The percent inhibition values were calculated by taking DMSO as minimum. Concentration study (usually 9-12 dilutions) was done to determine the IC50 of each compound.

[1] = Toxicity study in BALB/c nude mice containing WiDr colorectal adenocarcinoma xenograft (body weight); type: in vivo; conditions: BALB/c nude mice with WiDr xenograft
Description: Female BALB/c nude mice weighing ˜20 g were taken and 5.0 10^6 WiDr cancer cells were implanted into their right flanks with a 1:1 mixture of 0.1 mL PBS and matrigel. The tumor was allowed to grow to a size of ˜150 cubic millimeters (14 days). The mice were randomly chosen by chance and assigned into 5 groups (6 mice per group), one group being the control group to which tumor was allowed to grow without any drug administration (food only). The drugs were administered twice daily by P.O. or I.P. Group 1 mice were administered orally with 50 mg/kg of Compound 20. Groups 2, 3 and 4 mice were treated via IP with 10 mg/kg Compound 20, 8 mg/kg of Compound 14 and 238 mg/kg CHC respectively. Body weight changes were recorded every two days for 3 weeks.

MCT1, sequence (P53987 whole entry): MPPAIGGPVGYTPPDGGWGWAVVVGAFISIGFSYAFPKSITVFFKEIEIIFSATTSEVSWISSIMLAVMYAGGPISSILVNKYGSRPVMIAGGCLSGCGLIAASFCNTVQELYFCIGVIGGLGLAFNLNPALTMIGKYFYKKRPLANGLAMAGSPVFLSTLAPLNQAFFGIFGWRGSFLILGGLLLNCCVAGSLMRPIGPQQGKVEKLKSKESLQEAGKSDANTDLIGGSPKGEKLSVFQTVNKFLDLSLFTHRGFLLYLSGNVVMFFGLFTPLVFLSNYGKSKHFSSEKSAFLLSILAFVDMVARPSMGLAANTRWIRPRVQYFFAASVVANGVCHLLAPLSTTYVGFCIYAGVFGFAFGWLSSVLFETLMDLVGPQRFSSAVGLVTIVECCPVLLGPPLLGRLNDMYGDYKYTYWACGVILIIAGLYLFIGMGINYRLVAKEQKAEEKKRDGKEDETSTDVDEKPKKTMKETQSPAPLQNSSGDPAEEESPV
MCT1, sequence (P26453 141-388 partner): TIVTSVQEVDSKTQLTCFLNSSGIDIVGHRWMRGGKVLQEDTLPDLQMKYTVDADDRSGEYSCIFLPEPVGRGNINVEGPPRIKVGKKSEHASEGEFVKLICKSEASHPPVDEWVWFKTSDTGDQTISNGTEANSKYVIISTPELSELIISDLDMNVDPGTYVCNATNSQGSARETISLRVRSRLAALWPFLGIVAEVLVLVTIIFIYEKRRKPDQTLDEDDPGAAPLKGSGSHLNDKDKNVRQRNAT

COc1cc(N(c2ccccc2)c2ccccc2)ccc1/C=C(\C#N)C(=O)O [Compound 20]
IC50 (MCT1): 0.008 µM | Weight in grams (Day 0) ([1]; 10 mg/kg i.p. twice daily): 21.93 grams | Weight in grams (Day 22) ([1]; 10 mg/kg i.p. twice daily): 23.38 grams | Weight in grams (Day 0) ([1]; 50 mg/kg p.o. twice daily): 21.85 grams | Weight in grams (Day 22) ([1]; 50 mg/kg p.o. twice daily): 23.01 grams
